# Experiments:
# Teratogenicity = assay type: in vivo
# From the text: (§1) Table 5. contains the results of several acute and sub-chronic toxicity tests.
# [1] = Sub. Chronic Toxicity. 90 days; assay type: in vivo
# From the text: as §1
# HIV (non-glp) = test: Antimicrobial efficacy of HOCl skin cleanser (Table 1); assay type: cell-based; settings: 0.01% HOCl; 30 seconds
# Enterococcus. faecium = test: as above; assay type: cell-based; settings: 0.01% HOCl; 30 seconds
# [2] = USP <51> Antimicrobial Effectiveness Testing; assay type: cell-based; settings: 0.05% HOCl aqueous solution
# From the text: A 0.05% HOCl aqueous solution is intended for the cleansing and removal of the most common bacteria and viruses associated with skin-to-skin sexually transmitted diseases (pre and post sexual activity) to promote general sexual hygiene.
# [3] = Fournier's gangrene patient case; assay type: in vivo, human; settings: HOCl (0.046%) aqueous solution; one patient; four step surgical process; 24 hours period
# Description: A HOCl (0.046%) aqueous solution was preformed in a four step surgical process to a patient that was infected with Fournier's gangrene. Skin was removed from the infected area before administering the HOCl solution on the infected areas in a 24 hours period. Following application, skin graphs were placed over the surgical wound for rehabilitation process.
# [4] = test system: S. aureus Linezolid Resistant; test: Efficacy at 30 seconds (Table 2); assay type: cell-based; settings: 0.01 to 0.05% aqueous solution
# [5] = Non-randomized study of skin ulcers, 822 patients; assay type: in vivo, human; settings: 0.046% HOCl aqueous solution
# Description: A non-randomized, non-placebo controlled study involving 822 patients with a variety of ulcers was conducted. These patients were treated with HOCl aqueous solution (0.046%) as the only therapeutic intervention and followed the patients for six months to evaluate ulcer closure as a marker of therapeutic success.
# MRSA = test: Efficacy at 30 seconds (Table 2); assay type: cell-based, methicillin-resistant staphylococcus aureus; settings: 0.01 to 0.05% aqueous solution
# Bovine Diarrhea virus = test: Efficacy at 30 seconds (Table 2); assay type: cell-based; settings: 0.01 to 0.05% aqueous solution
# Enterococcus faecalis = test: Antimicrobial efficacy of HOCl skin cleanser (Table 1); assay type: cell-based; settings: 0.01% HOCl; 30 seconds
# [6] = test system: Staphylococcus epidermidis; test: as above; assay type: cell-based; settings: 0.01% HOCl; 30 seconds
# Acute Dermal Toxicity = assay type: in vivo; settings: Albino New Zealand Rabbits, 0.05% HOCl solution, males and females
# From the text: as §1
# Enterovirus-71 (EV-71) = test: Test of viral inactivation, ASTM E1052-96 viruses in suspension; assay type: cell-based; settings: 0.04% HOCl aqueous solution; 30 seconds
# S. Epidermidis = test: ASTM E2315 Time Kill Assay for Antimicrobial Agents; assay type: cell-based; settings: 0.046% HOCl aqueous solution; 30 seconds; high organic load
# Description: (§2) Table 3. below represents the efficacy of 0.046% aqueous hypochlorous acid solution in the presence of high organic load. ASTM E2315 Time Kill Assay for Antimicrobial Agents. The study was performed in ATS labs in Minnesota recommended by the U.S. FDA's Tentative Final Monograph for OTC Healthcare Antiseptic Drug. […] Additional times were evaluated: 1 minute, 5 minutes, and 10 minutes, all with and without organic soil (Using 10% whole milk and 5% Fetal Bovine Serum). The trend in the efficiency is maintained under the same proportions.
# Haemophilus influenzae = test: as above; assay type: cell-based; settings: 0.046% HOCl aqueous solution; 30 seconds; high organic load
# Description: as §2
# P. mirabilis = test: as above; assay type: cell-based; settings: 0.046% HOCl aqueous solution; 30 seconds; high organic load
# Description: as §2
# K. pneumoniae NDM-1 = test: as above; assay type: cell-based; settings: 0.046% HOCl aqueous solution; 30 seconds; high organic load
# Description: as §2
# P. aeruginosa = test: as above; assay type: cell-based; settings: 0.046% HOCl aqueous solution; 30 seconds; high organic load
# Description: as §2
# Candida albicans [7] = test: as above; assay type: cell-based; settings: 0.046% HOCl aqueous solution; 30 seconds; high organic load
# Description: as §2
# S. marcenscens = test: as above; assay type: cell-based; settings: 0.046% HOCl aqueous solution; 30 seconds; high organic load
# Description: as §2
# K. pneumoniae - ESBL = test: as above; assay type: cell-based; settings: 0.046% HOCl aqueous solution; 30 seconds; high organic load
# Description: as §2
# E. faecium = test: as above; assay type: cell-based; settings: 0.046% HOCl aqueous solution; 30 seconds; high organic load
# Description: as §2
# A. baumanii = test: as above; assay type: cell-based; settings: 0.046% HOCl aqueous solution; 30 seconds; high organic load
# Description: as §2
# Enterobacter aerogenes = test: as above; assay type: cell-based; settings: 0.046% HOCl aqueous solution; 30 seconds; high organic load
# Description: as §2
# K. oxytoca = test: as above; assay type: cell-based; settings: 0.046% HOCl aqueous solution; 30 seconds; high organic load
# Description: as §2
# [8] = test system: Vesicular Stomatitis Virus (VSV); assay type: cell-based; settings: 0.04% HOCl aqueous solution; 30 seconds
# [9] = Absorption through intact skin; assay type: in vitro ADME; settings: low concentrations of hypochlorous acid
# From the text: Thus, the potential for producing skin reactions is extremely low.
# Human Papillomavirus = test: Efficacy at 30 seconds (Table 2); assay type: cell-based; settings: 0.01 to 0.05% aqueous solution
# Candida albicans [10] = test: Antimicrobial efficacy of HOCl skin cleanser (Table 1); assay type: cell-based; settings: 0.01% HOCl; 30 seconds
# K. pneumoniae = test: Efficacy at 30 seconds (Table 2); assay type: cell-based; settings: 0.01 to 0.05% aqueous solution
smiles,measurement,setting,value
"OCl [HOCl, hypochlorous acid]",mortalities,"Teratogenicity; Oral administration of 1000 mg/Kg/day, Females and Pregnant Wistar rats","No mortalities, considered"
same,toxicity assessment,"Teratogenicity; rat, in vivo, po, 1000 mg/kg/day",non-toxic
same,mortalities,"[1]; 90 days, 1000 mg/Kg Body weight, Wistar Rats","No mortalities, considered"
same,toxicity assessment,"[1]; rat, in vivo, 1000 mg/kg",non-toxic
same,% Reduction,HIV (non-glp),99.999%
same,Log Reduction,HIV (non-glp),>6.1 Log10
same,% Reduction,Enterococcus. faecium,99.99%
same,Log Reduction,Enterococcus. faecium,>6.21 Log10
same,USP <51> Antimicrobial Effectiveness Testing outcome,[2],meets all requirements of USP <51> Antimicrobial Effectiveness Testing
same,outcome in Fournier's gangrene,[3],prevention of further spread of the disease as well as prevention of amputation and additional complications
same,% Reduction,[4],99.999%
same,Log Reduction,[4],>5.84 Log10
same,interference with antibiotics administered orally,[5],No interference with antibiotics administered orally
same,local infection rate for all ulcers,[5],Decreased the local infection rate for all ulcers
same,closing index for venous ulcers,[5]; at 6 months,97%
same,closure of mixed ulcers,[5]; even when a surgical procedure was required,≤ 75%
same,recurrence rate,[5]; ulcers,2.7 % a year
same,% Reduction,MRSA,99.999%
same,Log Reduction,MRSA,>5.89 Log10
same,% Reduction,Bovine Diarrhea virus,99.999%
same,Log Reduction,Bovine Diarrhea virus,>5.35 Log10
same,% Reduction,Enterococcus faecalis,99.999%
same,Log Reduction,Enterococcus faecalis,>6.5 Log10
same,% Reduction,[6],99.999%
same,Log Reduction,[6],>5.8 Log10
same,Acute Lethal Dose,Acute Dermal Toxicity,> 5000 mg/kg body weight for males
same,% Reduction,Enterovirus-71 (EV-71),99.998%
same,Log Reduction,Enterovirus-71 (EV-71),4.83
same,% Reduction,S. Epidermidis,99.999%
same,Log Reduction,S. Epidermidis,>5.60 Log10
same,% Reduction,Haemophilus influenzae,>99.99%
same,Log Reduction,Haemophilus influenzae,>4.81 Log10
same,% Reduction,P. mirabilis,99.999%
same,Log Reduction,P. mirabilis,>5.65 Log10
same,% Reduction,K. pneumoniae NDM-1,99.999%
same,Log Reduction,K. pneumoniae NDM-1,>5.59 Log10
same,% Reduction,P. aeruginosa,99.999%
same,Log Reduction,P. aeruginosa,>5.96 Log10
same,% Reduction,Candida albicans [7],99.999%
same,Log Reduction,Candida albicans [7],>5.19 Log10
same,% Reduction,S. marcenscens,99.999%
same,Log Reduction,S. marcenscens,>5.37 Log10
same,% Reduction,K. pneumoniae - ESBL,99.999%
same,Log Reduction,K. pneumoniae - ESBL,>5.76 Log10
same,% Reduction,E. faecium,99.999%
same,Log Reduction,E. faecium,>5.32 Log10
same,% Reduction,A. baumanii,99.999%
same,Log Reduction,A. baumanii,>6.15 Log10
same,% Reduction,Enterobacter aerogenes,99.999%
same,Log Reduction,Enterobacter aerogenes,>5.90 Log10
same,% Reduction,K. oxytoca,99.999%
same,Log Reduction,K. oxytoca,>5.50 Log10
same,% Reduction,[8],99.9999%
same,Log Reduction,[8],7.66
same,absorption of the compound through intact skin,[9],no evidence of absorption of the compound through intact skin
same,% Reduction,Human Papillomavirus,99.999%
same,Log Reduction,Human Papillomavirus,>5.35 Log10
same,% Reduction,Candida albicans [10],99.99%
same,Log Reduction,Candida albicans [10],>5.98 Log10
same,% Reduction,K. pneumoniae,99.999%
same,Log Reduction,K. pneumoniae,>5.46 Log10

# Reference: patent US20190125790A1, “USE OF HYPOCHLOROUS ACID AS A TOPICAL ANTIMICROBIAL” (BIIOSMART TECHNOLOGIES LLC, priority 2016, published 2019)
